{
  "source": "patent US9096532B2",
  "about": "“Pyrazole inhibitors of COX-2 and sEH” (The Regents of the University of California, priority 2010, dated 2015)",
  "key": {"[1]": {"system": "HepG2 cells", "assay": "HepG2 cell viability analysis (MTT)", "format": "cell-based", "description": "Cells were plated at 10,000 cell per well in 96-well plates and allowed to attach overnight under the growth conditions described above. […] These compounds were dissolved in 100% DMSO and diluted with EMEM to the desired concentration of 0.1 μM, 1.0 μM, 10 μM, 25 μM, and 50 μM, with a final DMSO concentration of 0.1% for all cell-based in vitro studies. All studies included DMSO as a solvent control. Cell viability was determined using the MTT Cell Viability Assay Kit from ATCC according to manufacturer's instructions. The 96-well plates were measure at 570 nm using SpectroMax 190 plate reader (Molecular Devices, Sunnyvale, Calif.). […] Each concentration was performed in triplicate per 96-well plate and EC50 data are presented as the mean±standard deviation from at least 3 separate experiments performed on separate days."}, "[2]": {"target": "T1, ovine COX-1 (Ovis aries, UniProt P05979)", "T1 construct": "purchased Cayman Chemical 700100", "T1 sequence (P05979 25-600)": "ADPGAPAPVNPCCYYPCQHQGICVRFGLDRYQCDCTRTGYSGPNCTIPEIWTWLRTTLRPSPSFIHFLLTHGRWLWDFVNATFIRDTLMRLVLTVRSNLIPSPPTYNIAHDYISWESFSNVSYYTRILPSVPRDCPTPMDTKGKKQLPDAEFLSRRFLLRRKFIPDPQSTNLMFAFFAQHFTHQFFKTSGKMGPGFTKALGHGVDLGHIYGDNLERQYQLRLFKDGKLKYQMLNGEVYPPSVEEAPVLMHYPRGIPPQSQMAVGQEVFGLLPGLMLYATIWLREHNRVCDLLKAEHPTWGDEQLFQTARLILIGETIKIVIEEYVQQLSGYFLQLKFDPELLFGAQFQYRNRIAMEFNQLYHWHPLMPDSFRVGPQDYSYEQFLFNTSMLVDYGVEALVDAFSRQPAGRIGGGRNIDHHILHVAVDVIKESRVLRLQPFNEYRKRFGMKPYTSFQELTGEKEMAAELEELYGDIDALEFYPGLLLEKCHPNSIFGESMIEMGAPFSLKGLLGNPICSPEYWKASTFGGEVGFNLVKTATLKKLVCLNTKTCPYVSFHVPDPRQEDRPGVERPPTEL", "assay": "Cyclooxygenase inhibition assay (COX Fluorescent Inhibitor Screening Assay Kit), COX-1", "format": "biochemical", "description": "(§1) Stock solutions of test compounds are dissolved in a minimum volume of DMSO. 10 μl of various concentrations of the test compound solutions, e.g., [I]final between 0.01 and 100 μM, are added to a series of supplied reaction buffer solutions (150 μl, 100 mM Tris-HCl, pH 8.0) with either COX-1 or COX-2 (10 μl) enzyme in the presence of Heme (10 μl) and a fluorometric substrate (10 μl). The reactions are initiated by quickly adding 10 μl of arachidonic acid solution and then incubating the system for two minutes at room temperature. […] The intensity of this fluorescence is proportional to the amount of resorufin, which is proportional to the amount of PGG2 present in the well during the incubation. Percent inhibition is calculated by comparison from the 100% initial activity sample value (no inhibitor).\nas §1, with “compounds were” for “compounds are”, “μM, were” for “μM, are”, “reactions were” for “reactions are”, “then incubated” for “then incubating the system”, “inhibition was” for “inhibition is”"}, "[3]": {"system": "MMP activity in HUVEC cells", "assay": "Matrix metalloproteinase (MMP) assay by zymography, HUVEC cells", "format": "cell-based, human", "conditions": "FIG. 17 right", "description": "MMP activity in PC-3 and HUVEC cells were carried out by zymography (J Vis Exp, e2445). […] After that, the gels were incubated at renaturing buffer for 30 min, followed with incubation at zymography developing buffer for 30 min at room temperature, and replaced with fresh developing buffer and incubated at 37° C. overnight. The gels were stained by Coomassie blue, and images were recorded and analyzed by NIH Image J software."}, "[4]": {"assay": "Pharmacokinetics in rats by oral administration"}, "[5]": {"system": "VEGF-induced angiogenesis", "assay": "In vivo angiogenesis assay (Matrigel plug)", "conditions": "C57BL/6 mice, n=6 per group, FIG. 15", "description": "Male C57BL/6 mice were purchased from Charles River Lab. After acclimation for 1 wk in a standard animal facility, the animals were lightly anesthesized using 1-4% isoflurane in oxygen (2 L/min) and placed on a heated stage to maintain body temperature at 37° C. Growth-factor reduced Matrigel (0.5 mL, BD Biosciences, San Jose, Calif.) mixed with 100 ng mouse VEGF 164 (R&D Systems, Minneapolis, Minn.), 20 U heparin (APP Pharmaceuticals, Schaumburg, Ill.), with or without test compounds were subcutaneously injected into the mice at the abdominal area. Each mouse was injected with two gels (with/without test compounds) symmetrically in the abdomen. After 4-7 days, the animals were euthanized and dissected to recover the implanted Matrigel plugs. Hemoglobin contents inside the Matrigel implants were analyzed by Drabkin's reagent (Sigma-Aldrich, St. Louis, Mont.)."}, "[6]": {"system": "LPS induced allodynia", "assay": "Von Frey mechanical nociceptive assay, LPS induced model of inflammatory pain", "format": "in vivo", "conditions": "male SD rats, 10 mg/kg s.c. 60 minutes before intraplantar LPS, tested until 6 hours post LPS", "description": "In vivo anti-allodynic effects of the COX-2/sEH dual inhibitors provided herein was assayed. An LPS induced model of inflammatory pain was used to compare the pain reducing activity of the COX-2/sEH dual inhibitors to combination and individual therapies.\nRats weighing approximately 250-300 grams are brought to the testing apparatus and allowed to acclimate for 30 minutes. After 30 minutes the rats are tested with a von Frey aesthesiometer for their non-treated baseline withdrawal latency to mechanical stimulation. The von Frey apparatus is a raised metal mesh platform that has clear acrylic chambers to enclose rats but allow them to move freely. A rigid tip von Frey probe is used to probe the plantar surface of the rat hind paw though the mesh floor to elicit a withdrawal response. The measures recorded are grams of force applied to the hind paw required to elicit a withdrawal. The pretreatment baseline score is considered the pain-free baseline (BL) and is assigned 100% for further response calculations. […] The measures are then calculated as a percent of the pretreatment baseline score."}, "[7]": {"conditions": "21i in comparison with 21j, rats oral 1 mg/kg"}, "[8]": {"conditions": "rats, oral administration at 1 mg/kg (n = 4), blood"}},
  "note": "Entries after “also recorded” stand apart in the source; their conditions may differ.",
  "data": [
    {"smiles": "NS(=O)(=O)c1ccc(-n2nc(CCCNC(=O)Nc3ccc(C(F)(F)F)cc3)cc2-c2ccccc2)cc1", "note": "[Compound 21i, 4-(5-Phenyl-3-{3-[3-(4-trifluoromethyl-phenyl)-ureido]-propyl}-pyrazol-1-yl)-benzenesulfonamide]", "values": [
      {"measurement": "EC50", "setting": "[1]; Homo sapiens, HepG2, MTT after 24 hours of incubation", "value": "4.5 ± 0.5", "unit": "µM"},
      {"measurement": "Effect on HepG2 cell viability (killing cancer cells), in words", "setting": "[1]; dose dependence, FIG. 9", "value": "more efficient than Celecoxib in combination or not with t-TUCB in killing the cancer cells"},
      {"measurement": "IC50", "setting": "[2]", "value": "> 100", "unit": "µM"},
      {"measurement": "inhibition at 100 µM", "setting": "[2]; read-out: COX-1 (% inhibition)", "value": 22.7, "unit": "%"},
      {"measurement": "MMP activity, in words", "setting": "[3]", "value": "no effect on MMP activity"},
      {"measurement": "Higher AUC in rats", "setting": "[4]; [7]", "value": 2, "unit": "fold"},
      {"measurement": "Higher Cmax in rats", "setting": "[4]; [7]", "value": 2, "unit": "fold"},
      {"measurement": "AUC", "setting": "[4]; [8]", "value": "2.764 ± 0.804", "unit": "µM·h"},
      {"measurement": "Cmax", "setting": "[4]; [8]", "value": "415 ± 139", "unit": "nM"},
      {"measurement": "Tmax", "setting": "[4]; [8]", "value": "1.5 ± 0.6", "unit": "h"},
      {"measurement": "t1/2", "setting": "[4]; [8]", "value": "12.9 ± 3.8", "unit": "h"},
      {"measurement": "VEGF-induced angiogenesis, hemoglobin content inside the Matrigel, in words", "setting": "[5]", "value": "inhibits VEGF-induced angiogenesis"},
      {"measurement": "Anti-allodynic effect, von Frey paw withdrawal, in words", "setting": "[6]", "value": "better in vivo efficacy in a pain model in rats compared to celecoxib and t-AUCB combination therapy; also recorded: superior effect compared to the combination therapies; also recorded: superior anti-allodynic activity; also recorded: more efficient than the combination of celecoxib with t-AUCB"}
    ]}
  ]
}
